According to the supplement of paper PMC4862054:

Legend:
Conditions in all cases: incubation time: 72 h
BT-474 [1] = experiment: normalised response (% of control), CellTox Green; higher = less cell death (100 = DMSO, 0 = benzethonium chloride kill control)
How it was run: (§1)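 Each value is the plate-normalised signal at one concentration of the series. Breast cancer cell lines (20 µl suspension) were incubated 72 h in 384-well plates with compound at 5 concentrations in 10-fold steps over a compound-specific 10,000-fold range. CellTox Green and then CellTiter-Glo were read, and each plate was scaled to 0.1 % DMSO (100) and a positive kill control (0).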

BT-549 [2] = experiment: as above
How it was run: as §1

CAL-120 [3] = experiment: as above
How it was run: as §1

CAL-148 [4] = experiment: as above
How it was run: as §1

CAL-51 [5] = experiment: as above
How it was run: as §1

CAL-85-1 [6] = experiment: as above
How it was run: as §1

DU-4475 [7] = experiment: as above
How it was run: as §1

HCC1143 [8] = experiment: as above
How it was run: as §1

HCC1599 [9] = experiment: as above
How it was run: as §1

HCC1937 [10] = experiment: as above
How it was run: as §1

HDQ-P1 [11] = experiment: as above
How it was run: as §1

Hs578T [12] = experiment: as above
How it was run: as §1

MCF-10A [13] = experiment: as above
How it was run: as §1

MDA-MB-231 [14] = experiment: as above
How it was run: as §1

MDA-MB-453 [15] = experiment: as above
How it was run: as §1

MDA-MB-468 [16] = experiment: as above
How it was run: as §1

MFM-223 [17] = experiment: as above
How it was run: as §1

BT-474 [18] = experiment: normalised response (% of control), CellTiter-Glo; higher = more viable cells (100 = DMSO, 0 = benzethonium chloride kill control)
How it was run: as §1

BT-549 [19] = experiment: as above
How it was run: as §1

CAL-120 [20] = experiment: as above
How it was run: as §1

CAL-148 [21] = experiment: as above
How it was run: as §1

CAL-51 [22] = experiment: as above
How it was run: as §1

CAL-85-1 [23] = experiment: as above
How it was run: as §1

DU-4475 [24] = experiment: as above
How it was run: as §1

HCC1143 [25] = experiment: as above
How it was run: as §1

HCC1599 [26] = experiment: as above
How it was run: as §1

HCC1937 [27] = experiment: as above
How it was run: as §1

HDQ-P1 [28] = experiment: as above
How it was run: as §1

Hs578T [29] = experiment: as above
How it was run: as §1

MCF-10A [30] = experiment: as above
How it was run: as §1

MDA-MB-231 [31] = experiment: as above
How it was run: as §1

MDA-MB-436 [32] = experiment: as above
How it was run: as §1

MDA-MB-453 [33] = experiment: as above
How it was run: as §1

MDA-MB-468 [34] = experiment: as above
How it was run: as §1

MFM-223 [35] = experiment: as above
How it was run: as §1

SK-BR-3 = experiment: as above
How it was run: as §1

MDA-MB-436 [36] = experiment: normalised response (% of control), CellTox Green; higher = less cell death (100 = DMSO, 0 = benzethonium chloride kill control)
How it was run: as §1

Compound	normalised response (BT-474 [1]) [%]	normalised response (BT-549 [2]) [%]	normalised response (CAL-120 [3]) [%]	normalised response (CAL-148 [4]) [%]	normalised response (CAL-51 [5]) [%]	normalised response (CAL-85-1 [6]) [%]	normalised response (DU-4475 [7]) [%]	normalised response (HCC1143 [8]) [%]	normalised response (HCC1599 [9]) [%]	normalised response (HCC1937 [10]) [%]	normalised response (HDQ-P1 [11]) [%]	normalised response (Hs578T [12]) [%]	normalised response (MCF-10A [13]) [%]	normalised response (MDA-MB-231 [14]) [%]	normalised response (MDA-MB-453 [15]) [%]	normalised response (MDA-MB-468 [16]) [%]	normalised response (MFM-223 [17]) [%]	normalised response (BT-474 [18]) [%]	normalised response (BT-549 [19]) [%]	normalised response (CAL-120 [20]) [%]	normalised response (CAL-148 [21]) [%]	normalised response (CAL-51 [22]) [%]	normalised response (CAL-85-1 [23]) [%]	normalised response (DU-4475 [24]) [%]	normalised response (HCC1143 [25]) [%]	normalised response (HCC1599 [26]) [%]	normalised response (HCC1937 [27]) [%]	normalised response (HDQ-P1 [28]) [%]	normalised response (Hs578T [29]) [%]	normalised response (MCF-10A [30]) [%]	normalised response (MDA-MB-231 [31]) [%]	normalised response (MDA-MB-436 [32]) [%]	normalised response (MDA-MB-453 [33]) [%]	normalised response (MDA-MB-468 [34]) [%]	normalised response (MFM-223 [35]) [%]	normalised response (SK-BR-3) [%]	normalised response (MDA-MB-436 [36]) [%]
CN(C)CCN1C(=O)c2cccc3cc(N)cc(c23)C1=O [Amonafide] (1000 nM)	99.3	130	98.9	93.9	106	100	96.7	100	102	116	106	113	100	122	106	52	97.3	87.5	97.2	96.2	87.2	113	93.6	87.1	97.6	106	89.9	102	93.6	92.2	95.6	95.2	107	91.6	101	89.5	–
CCCCCCCCc1ccc(CCC(N)(CO)CO)cc1 [Fingolimod] (1000 nM)	103	131	99.4	107	106	101	103	111	106	–	89	106	57.9	122	103	160	102	94.6	99.3	96.1	101	80.5	103	100	101	114	103	103	99.9	103	94.3	103	102	98.1	107	102	90.6
Cc1ccc(NC(=O)c2ccc(CN3CCN(C)CC3)cc2)cc1Nc1nccc(-c2cccnc2)n1 [Imatinib] (1000 nM)	98.8	121	106	101	103	110	101	113	104	–	–	104	101	107	103	137	105	102	106	108	103	96.3	104	105	99.2	101	93.6	101	105	111	106	102	111	99.9	104	105	–
c1ccc([C@H]2CN3CCSC3=N2)cc1 [Levamisole] (1000 nM)	102	120	100	107	103	107	106	101	104	108	75.4	–	113	117	96.9	68.7	102	100	100	101	103	73.4	104	99.2	109	98.4	99.6	106	101	109	104	104	105	110	105	113	85
